Reference: patent publication US20220380319A1 (Bial - R&D Investments, S.A., priority 2019, published 2022)
Converted amounts (≈) assume the structure as drawn.

Columns and labels:
acid ceramidase = target: T1, acid ceramidase (Homo sapiens, UniProt Q13510); assay: Acid ceramidase inhibition, biochemical fluorescent assay with cell lysates overexpressing acid ceramidase, substrate Rbm14-12; conditions: substrate Rbm14-12 6.3 μM, pH 4.5, 1 hr preincubation at RT
T1 construct: Cell lysates overexpressing acid ceramidase were used as the enzyme source; expressed in transfected cells
T1 sequence (Q13510 22-395): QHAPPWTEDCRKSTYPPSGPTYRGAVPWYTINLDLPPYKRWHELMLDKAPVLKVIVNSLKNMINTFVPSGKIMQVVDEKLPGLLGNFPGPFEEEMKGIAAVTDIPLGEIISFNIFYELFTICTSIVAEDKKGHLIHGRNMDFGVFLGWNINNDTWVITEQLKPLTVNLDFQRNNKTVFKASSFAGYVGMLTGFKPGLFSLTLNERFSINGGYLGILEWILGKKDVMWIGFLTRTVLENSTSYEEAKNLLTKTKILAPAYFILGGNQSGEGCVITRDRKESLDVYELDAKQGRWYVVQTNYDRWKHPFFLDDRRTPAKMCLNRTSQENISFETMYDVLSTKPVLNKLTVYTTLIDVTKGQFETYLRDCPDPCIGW
In short: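 Lysate of cells overexpressing acid ceramidase (10 μg protein) preincubated with compound dose series 1 hr at RT in 25 mM NaAC, 100 mM NaCl, pH 4.5, then reacted 1 hr with 6.3 μM Rbm14-12. Stopped with NaIO4/glycine buffer pH 10.6, fluorescence ex360/em446; IC50 by four-parameter fit.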

[1] = Compound solubility in water

COc1cc2c(cc1-c1cncnc1)ncn2C(=O)NCC(C)C [Example 79a, N-iso-Butyl-6-methoxy-5-(pyrimidin-5-yl)-1H-benzo[d]imidazole-1-carboxamide]
IC50 (acid ceramidase): 200 to 1000 nM | solubility [1]: 22.2 µg/mL (≈ 68.2 µM)

COc1cc2ncn(C(=O)NCC(C)C)c2cc1-c1cncnc1 [Example 79b, N-iso-butyl-5-methoxy-6-(pyrimidin-5-yl)-1H-benzo[d]imidazole-1-carboxamide]
IC50 (acid ceramidase): < 200 nM | solubility [1]: 26.5 µg/mL (≈ 81.4 µM)

O=C(NCCCC(F)(F)F)n1cnc2ccccc21 [Example 80, N-(4,4,4-Trifluorobutyl)-1H-benzo[d]imidazole-1-carboxamide]
IC50 (acid ceramidase): < 200 nM | solubility [1]: 21.1 µg/mL (≈ 77.8 µM)

COc1nc2ccc(-c3cncnc3)cc2n1C(=O)NCC(C)C [Example 81a, N-iso-Butyl-2-methoxy-6-(pyrimidin-5-yl)-1H-benzo[d]imidazole-1-carboxamide]
IC50 (acid ceramidase): 200 to 1000 nM | solubility [1]: 22.8 µg/mL (≈ 70.1 µM)

COc1nc2cc(-c3cncnc3)ccc2n1C(=O)NCC(C)C [Example 81b, N-iso-butyl-2-methoxy-5-(pyrimidin-5-yl)-1H-benzo[d]imidazole-1-carboxamide]
IC50 (acid ceramidase): 200 to 1000 nM | solubility [1]: 27 µg/mL (≈ 83 µM)

CCCCNC(=O)n1c(OC)nc2ccc(-c3cncnc3)cc21 [Example 82a, N-Butyl-2-methoxy-6-(pyrimidin-5-yl)-1H-benzo[d]imidazole-1-carboxamide]
IC50 (acid ceramidase): 200 to 1000 nM | solubility [1]: 21.8 µg/mL (≈ 67 µM)

CCCCNC(=O)n1c(OC)nc2cc(-c3cncnc3)ccc21 [Example 82b, N-Butyl-2-methoxy-5-(pyrimidin-5-yl)-1H-benzo[d]imidazole-1-carboxamide]
IC50 (acid ceramidase): 200 to 1000 nM | solubility [1]: 24.5 µg/mL (≈ 75.3 µM)

COc1nc2cc(-c3cccnc3)cnc2n1C(=O)NCC(C)C [Example 83, N-iso-Butyl-2-methoxy-6-(pyridin-3-yl)-3H-imidazo[4,5-b]pyridine-3-carboxamide]
IC50 (acid ceramidase): 200 to 1000 nM | solubility [1]: 16.9 µg/mL (≈ 51.9 µM)

CCCCNC(=O)n1c(=O)n(C)c2nc(-c3cncnc3)ccc21 [Example 84, N-Butyl-3-methyl-2-oxo-5-(pyrimidin-5-yl)-2,3-dihydro-1H-imidazo[4,5-b]pyridine-1-carboxamide]
IC50 (acid ceramidase): 200 to 1000 nM | solubility [1]: 0.9 µg/mL (≈ 2.76 µM)

CCCCNC(=O)n1c(OC)nc2ccc(-c3cncnc3)nc21 [Example 85a, N-Butyl-2-methoxy-5-(pyrimidin-5-yl)-3H-imidazo[4,5-b]pyridine-3-carboxamide]
IC50 (acid ceramidase): < 200 nM | solubility [1]: 40 µg/mL (≈ 123 µM)

CCCCNC(=O)n1c(OC)nc2nc(-c3cncnc3)ccc21 [Example 85b, N-butyl-2-methoxy-5-(pyrimidin-5-yl)-1H-imidazo[4,5-b]pyridine-1-carboxamide]
IC50 (acid ceramidase): < 200 nM | solubility [1]: 54 µg/mL (≈ 165 µM)

CN1CCC(Oc2cccc3c2ncn3C(=O)NCCc2ccccc2)CC1 [Example 86, 4-((1-Methylpiperidin-4-yl)oxy)-N-phenethyl-1H-benzo[d]imidazole-1-carboxamide]
IC50 (acid ceramidase): < 200 nM | solubility [1]: 26.5 µg/mL (≈ 70 µM)

Cn1c(=O)n(C(=O)NCCc2ccccc2)c2cccnc21 [Example 87, 3-Methyl-2-oxo-N-phenethyl-2,3-dihydro-1H-imidazo[4,5-b]pyridine-1-carboxamide]
IC50 (acid ceramidase): > 1000 nM | solubility [1]: 14.7 µg/mL (≈ 49.6 µM)

Cn1c(=O)n(C(=O)NCCc2ccccc2)c2ncccc21 [Example 88, 1-Methyl-2-oxo-N-phenethyl-1,2-dihydro-3H-imidazo[4,5-b]pyridine-3-carboxamide]
IC50 (acid ceramidase): < 200 nM | solubility [1]: 26.4 µg/mL (≈ 89.1 µM)

CN(C)CCOc1nc2ccccc2n1C(=O)NCCc1ccccc1 [Example 89, 2-(2-(Dimethylamino)ethoxy)-N-phenethyl-1H-benzo[d]imidazole-1-carboxamide]
IC50 (acid ceramidase): < 200 nM | solubility [1]: 27.6 µg/mL (≈ 78.3 µM)

CC(C)Oc1cccc2c1ncn2C(=O)NCCc1ccccc1 [Example 90, 4-iso-Propoxy-N-phenethyl-1H-benzo[d]imidazole-1-carboxamide]
IC50 (acid ceramidase): < 200 nM | solubility [1]: 0.3 µg/mL (≈ 0.928 µM)

CCOc1nc2ncccc2n1C(=O)NCCCc1ccccc1 [Example 91a, 2-Ethoxy-N-(3-phenylpropyl)-1H-imidazo[4,5-b]pyridine-1-carboxamide]
IC50 (acid ceramidase): < 200 nM | solubility [1]: 7 µg/mL (≈ 21.6 µM)

CCOc1nc2cccnc2n1C(=O)NCCCc1ccccc1 [Example 91b, 2-ethoxy-N-(3-phenylpropyl)-3H-imidazo[4,5-b]pyridine-3-carboxamide]
IC50 (acid ceramidase): < 200 nM | solubility [1]: 21.1 µg/mL (≈ 65 µM)

CCOc1nc2c(F)cccc2n1C(=O)NCCc1ccccc1 [Example 92, 2-Ethoxy-4-fluoro-N-phenethyl-1H-benzo[d]imidazole-1-carboxamide]
IC50 (acid ceramidase): < 200 nM | solubility [1]: 1.2 µg/mL (≈ 3.67 µM)

CCOc1nc2c(Cl)cccc2n1C(=O)NCCc1ccccc1 [Example 93, 4-Chloro-2-ethoxy-N-phenethyl-1H-benzo[d]imidazole-1-carboxamide]
IC50 (acid ceramidase): < 200 nM | solubility [1]: 0.05 µg/mL (≈ 0.145 µM)

CCCCNC(=O)n1c(OCC)nc2c(OC)cccc21 [Example 94, N-Butyl-2-ethoxy-4-methoxy-1H-benzo[d]imidazole-1-carboxamide]
IC50 (acid ceramidase): 200 to 1000 nM | solubility [1]: 11.2 µg/mL (≈ 38.4 µM)

CCCCNC(=O)n1c(OC(C)C)nc2ccccc21 [Example 96, N-Butyl-2-isopropoxy-1H-benzo[d]imidazole-1-carboxamide]
IC50 (acid ceramidase): > 1000 nM | solubility [1]: 10.3 µg/mL (≈ 37.4 µM)

CCCCNC(=O)n1c(OCC)nc2ccccc21 [Example 97, N-Butyl-2-ethoxy-1H-benzo[d]imidazole-1-carboxamide]
IC50 (acid ceramidase): 200 to 1000 nM | solubility [1]: 10.9 µg/mL (≈ 41.7 µM)

CCCCNC(=O)n1c(OC(C)C)nc2c(OC)cccc21 [Example 97a]
IC50 (acid ceramidase): 200 to 1000 nM | solubility [1]: 18 µg/mL (≈ 58.9 µM)

COc1cccc2c1ncn2C(=O)NCCC(C)C [Example 98, N-iso-Pentyl-4-methoxy-1H-benzo[d]imidazole-1-carboxamide]
IC50 (acid ceramidase): < 200 nM | solubility [1]: 16 µg/mL (≈ 61.2 µM)

CCCCNC(=O)n1c(OC)nc2c(OC)cccc21 [Example 100, N-Butyl-2,4-dimethoxy-1H-benzo[d]imidazole-1-carboxamide]
IC50 (acid ceramidase): 200 to 1000 nM | solubility [1]: 28 µg/mL (≈ 101 µM)

CCCCNC(=O)n1cnc2ccc(N3CCC(N4CCOCC4)CC3)cc21 [Example 101a, N-Butyl-6-(4-morpholinopiperidin-1-yl)-1H-benzo[d]imidazole-1-carboxamide]
IC50 (acid ceramidase): < 200 nM | solubility [1]: 26.7 µg/mL (≈ 69.3 µM)

CCCCNC(=O)n1cnc2cc(N3CCC(N4CCOCC4)CC3)ccc21 [Example 101b, N-butyl-5-(4-morpholinopiperidin-1-yl)-1H-benzo[d]imidazole-1-carboxamide]
IC50 (acid ceramidase): < 200 nM | solubility [1]: 7.5 µg/mL (≈ 19.5 µM)

CCCCNC(=O)n1cnc2ccc(N3CCC(N4CCN(C)CC4)CC3)cc21 [Example 102a, N-Butyl-6-(4-(4-methylpiperazin-1-yl)piperidin-1-yl)-1H-benzo[d]imidazole-1-carboxamide]
IC50 (acid ceramidase): < 200 nM | solubility [1]: 34.8 µg/mL (≈ 87.3 µM)

CCCCNC(=O)n1cnc2cc(N3CCC(N4CCN(C)CC4)CC3)ccc21 [Example 102b, N-butyl-5-(4-(4-methylpiperazin-1-yl)piperidin-1-yl)-1H-benzo[d]imidazole-1-carboxamide]
IC50 (acid ceramidase): 200 to 1000 nM | solubility [1]: 36.1 µg/mL (≈ 90.6 µM)

CC(C)CCNC(=O)n1cnc2ccc(-c3cncnc3)cc21 [Example 103a, N-iso-Pentyl-6-(pyrimidin-5-yl)-1H-benzo[d]imidazole-1-carboxamide]
IC50 (acid ceramidase): < 200 nM | solubility [1]: 14.3 µg/mL (≈ 46.2 µM)
